Data: patent US20250319053A1, “INHIBITORS OF THE PEPTIDYL-PROLYL CIS/TRANS ISOMERASE (PIN1), COMBINATIONS AND USES THEREOF” (DANA-FARBER CANCER INSTITUTE, INC., priority 2021, published 2025)

Assays:
[1] = system: human PDAC cells (PDAC1 and PDAC2); assay: Cell proliferation assay (CellTiter-Glo) in PDAC cells; assay type: cell-based; conditions: PDAC cells, 72 hrs
Method: Cells were seeded at a density of 5000 cells (PDAC1 and PDAC2), or 3000 cells (CAF1 and CAF2) per well in 96-well flat-bottomed plates and incubated for 24 h in culture medium. […] Control cells received dimethyl sulfoxide (DMSO) at a concentration equal to that of drug-treated cells for 72 hours. The cell viability was determined by CellTiter-Glo® 2.0 Assay (Promega) following the manufacturer's instructions.

[2] = in humans; cited from earlier work
[3] = target: Pin1 (Homo sapiens, UniProt Q13526); assay: Immunoblotting for Pin1 and substrate oncoproteins in PDAC cells; assay type: cell-based; design: endogenous in cells; host or cells: primary human patient-derived PDAC cells (PDAC1, PDAC2); conditions: 72 hrs
Method: Cultured cells were lysed in RIPA buffer (50 mM Tris-HCl, pH 7.2, 150 mM NaCl, 1% NP40, 0.1% sodium dodecyl sulfate (SDS), 0.25% Na-deoxycholate) with freshly added phosphatase inhibitors containing 5 mM NaF and 0.2 mM sodium orthovanadate (NA3VO4), and proteinase inhibitors containing 2 μg/mL Aprotinin, 2 μg/mL Leupeptin, 2 μg/mL Pepstatin A, 1 mM DTT (dithiothreitol), 0.5 mM 4-(2-aminoethyl)-benzenesulfonyl fluoride (AEBSF), and 20 mM Chymotrypsin, and then mixed with the SDS sample buffer and loaded onto a gel after boiling for 10 minutes at 95° C. The proteins were resolved by polyacrylamide gel electrophoresis and transferred to PVDF membrane. The transferred membrane was washed three times with Tris-buffered saline containing 0.1% Tween 20 (TBST). After blocking with TBST containing 5% milk or 3% bovine serum albumin (BSA) for 1 h room temperature, the membrane was incubated with the appropriate primary antibody (diluted 1:500-1:10000) in 5% milk or 3% BSA-containing TBST at 4° C. overnight. After incubation with the primary antibody, the membrane was washed three times with TBST for a total of 30 min followed by incubation with horseradish peroxidase conjugated goat anti-rabbit or anti-mouse IgG (diluted 1:5000) for 1 h at room temperature. After three extensive washes with TBST for a total of 30 min, the immunoblots were visualized by enhanced chemi-luminescence. Immunoblotting results were quantified using ImageJ (NIH).

Chain of Pin1 (Q13526 whole entry): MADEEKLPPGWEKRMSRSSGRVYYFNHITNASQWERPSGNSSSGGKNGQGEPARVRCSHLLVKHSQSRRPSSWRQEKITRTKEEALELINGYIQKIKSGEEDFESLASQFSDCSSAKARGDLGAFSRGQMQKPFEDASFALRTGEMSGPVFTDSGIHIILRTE

Compound | cell growth (proliferation assay) [1] | half-life [2] [min] | Pin1 and its substrate oncoproteins (IB) [3]
CC1=C(/C=C/C(C)=C/C=C/C(C)=C/C(=O)O)C(C)(C)CCC1 [ATRA, all-trans retinoic acid] | dose-dependently suppress cell growth | ~45 | ablate Pin1
arsenic trioxide [ATO, reference compound] | dose-dependently suppress cell growth | – | ablate Pin1
